For this assay, the target named is human σ1 receptor (Homo sapiens, UniProt Q99720). Nature of the assay: biochemical. Type of assay: binding. Also on record: μ and σ1 dual (binding to the σ1 receptor and the μ-opioid receptor expressed as Ki): key to the marks not given beside the values.

The term Ki denotes the equilibrium dissociation constant of an inhibitor or competing ligand from its target.

Like-named read-outs stand apart in the source and are kept apart here.

Chain of human σ1 receptor (Q99720 whole entry): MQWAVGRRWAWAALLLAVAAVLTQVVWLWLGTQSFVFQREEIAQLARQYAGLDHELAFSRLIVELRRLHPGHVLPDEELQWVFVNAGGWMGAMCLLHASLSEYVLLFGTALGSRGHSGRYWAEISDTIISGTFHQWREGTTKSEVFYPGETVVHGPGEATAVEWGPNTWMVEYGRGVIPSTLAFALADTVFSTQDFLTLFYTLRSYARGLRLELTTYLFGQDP

On to `CCOCCN1CCN(C2(CN(C(=O)CC)c3ncccc3F)CCOCC2)CC1` [Example 156, N-((4-(4-(2-ethoxyethyl)piperazin-1-yl)tetrahydro-2H-pyran-4-yl)methyl)-N-(3-fluoropyridin-2-yl)propionamide], for which the “μ and σ1 dual (binding to the σ1 receptor and the μ-opioid receptor expressed as Ki)” value (shortened to “μ and σ1 dual”) is given as “++”. Take `CCOCCN1CCN(C2(CN(C(=O)CC)c3ccccn3)CCOC(C)(C)C2)CC1` (stereo not drawn) [Example 165, N-((4-(4-(2-ethoxyethyl)piperazin-1-yl)-2,2-dimethyltetrahydro-2H-pyran-4-yl)methyl)-N-(pyridin-2-yl)propionamide]: the Ki is over 500 nM. On the same count and under the same terms, with `CCC(=O)N(CC1(N2CCN(Cc3ccccc3)CC2)CCOC(C)(C)C1)c1ncccc1C(F)(F)F` (stereo not drawn) [Example 67, N-((4-(4-benzylpiperazin-1-yl)-2,2-dimethyltetrahydro-2H-pyran-4-yl)methyl)-N-(3-(trifluoromethyl)pyridin-2-yl)propionamide] the figure was under 500 nM; with `CCC(=O)N(CC1(N2CCN(Cc3ccccc3)CC2)CCOCC1)c1ccc(F)cn1` [Example 6, N-((4-(4-benzylpiperazin-1-yl)tetrahydro-2H-pyran-4-yl)methyl)-N-(5-fluoropyridin-2-yl)propionamide], under 500 nM. `CCC(=O)N(CC1(N2CCN(CCC(C)C)CC2)CCOC2(CCCC2)C1)c1cccc(C(F)(F)F)n1` (stereo not drawn) [Example 173, N-((9-(4-isopentylpiperazin-1-yl)-6-oxaspiro[4.5]decan-9-yl)methyl)-N-(6-(trifluoromethyl)pyridin-2-yl)propionamide] showed an inhibition constant (Ki) of under 500 nM. In turn, `CCC(=O)N(CC1(N2CCN(Cc3cccc(F)c3)CC2)CCOCC1)c1ccccc1` [Example 100, N-((4-(4-(3-fluorobenzyl)piperazin-1-yl)tetrahydro-2H-pyran-4-yl)methyl)-N-phenylpropionamide] displayed an inhibitory constant (Ki) of under 100 nM.

Consider `CCC(=O)N(CC1(N2CCN(CC(C)C)CC2)CCOCC1)c1ncccc1F` [Example 158, N-(3-fluoropyridin-2-yl)-N-((4-(4-isobutylpiperazin-1-yl)tetrahydro-2H-pyran-4-yl)methyl)propionamide], for which the “μ and σ1 dual” value is reported as “++”.

For `CCC(=O)N(CC1(N2CCN(CCOC(F)(F)F)CC2)CCOCC1)c1cccc(C(F)(F)F)n1` [Example 141, N-((4-(4-(2-(trifluoromethoxy)ethyl)piperazin-1-yl)tetrahydro-2H-pyran-4-yl)methyl)-N-(6-(trifluoromethyl)pyridin-2-yl)propionamide], the Ki is under 500 nM.

Compound `CCC(=O)N(CC1(N2CCN(Cc3ccccc3)CC2)CCOC2(CCCC2)C1)c1cccc(C(F)(F)F)n1` (stereo not drawn) [Example 89, N-((9-(4-benzylpiperazin-1-yl)-6-oxaspiro[4.5]decan-9-yl)methyl)-N-(6-(trifluoromethyl)pyridin-2-yl)propionamide] displayed a Ki of under 100 nM. Still for that read-out and setting: with `CCC(=O)N(CC1(N2CCN(Cc3ccccc3)CC2)CC1)c1ncccc1C#N` [Example 80, N-((1-(4-benzylpiperazin-1-yl)cyclopropyl)methyl)-N-(3-cyanopyridin-2-yl)propionamide] the figure was under 500 nM. On the same count and under the same terms, in the case of `CCC(=O)N(CC1(N2CCN(CCC(C)C)CC2)CCOCC1)c1cccc(C(F)(F)F)n1` [Example 137, N-((4-(4-isopentylpiperazin-1-yl)tetrahydro-2H-pyran-4-yl)methyl)-N-(6-(trifluoromethyl)pyridin-2-yl)propionamide] it was under 100 nM. Turning to `CCC(=O)N(CC1(N2CCN(Cc3ccccc3)CC2)CCOCC1)c1cccc(C#N)c1` [Example 57, N-((4-(4-benzylpiperazin-1-yl)tetrahydro-2H-pyran-4-yl)methyl)-N-(3-cyanophenyl)propionamide], the “μ and σ1 dual” value is on record as “++”. In the case of `CCC(=O)N(CC1(N2CCN(Cc3ccc(F)cc3)CC2)CCOCC1)c1ccccc1` [Example 105, N-((4-(4-(4-fluorobenzyl)piperazin-1-yl)tetrahydro-2H-pyran-4-yl)methyl)-N-phenylpropionamide], the Ki is under 100 nM. On to `CCC(=O)N(CC(C)(C)N1CCN(CCc2ncccc2F)CC1)c1ccccn1` [Example 70, N-(2-(4-(2-(3-fluoropyridin-2-yl)ethyl)piperazin-1-yl)-2-methylpropyl)-N-(pyridin-2-yl)propionamide], for which the “μ and σ1 dual” value is recorded as “++”. `CCC(=O)N(CC1(N2CCN(CC(C)C)CC2)CCOC(C)(C)C1)c1ccccn1` (stereo not drawn) [Example 166, N-((4-(4-isobutylpiperazin-1-yl)-2,2-dimethyltetrahydro-2H-pyran-4-yl)methyl)-N-(pyridin-2-yl)propionamide] came in with an inhibition constant (Ki) of over 500 nM. Still for that read-out and setting: with `CCC(=O)N(CC1(N2CCN(Cc3ccccc3)CC2)CCOC(C)(C)C1)c1ncccc1F` (stereo not drawn) [Example 64, N-((4-(4-benzylpiperazin-1-yl)-2,2-dimethyltetrahydro-2H-pyran-4-yl)methyl)-N-(3-fluoropyridin-2-yl)propionamide] the figure was under 500 nM. The same measure, in the same setting: in the case of `CCC(=O)N(CC1(N2CCN(CCC(C)C)CC2)CCOCC1)c1cccc(C#N)n1` [Example 86, N-(6-cyanopyridin-2-yl)-N-((4-(4-isopentylpiperazin-1-yl)tetrahydro-2H-pyran-4-yl)methyl)propionamide] it was under 500 nM; in that of `CCC(=O)N(CC1(N2CCN(Cc3ccccc3)CC2)CCOCC1)c1nc(C(F)(F)F)ccc1C#N` [Example 60, N-((4-(4-benzylpiperazin-1-yl)tetrahydro-2H-pyran-4-yl)methyl)-N-(3-cyano-6-(trifluoromethyl)pyridin-2-yl)propionamide], under 500 nM; in that of `CCC(=O)N(CC1(N2CCN(Cc3cccnc3)CC2)CCOCC1)c1ccccc1` [Example 101, N-phenyl-N-((4-(4-(pyridin-3-ylmethyl)piperazin-1-yl)tetrahydro-2H-pyran-4-yl)methyl)propionamide], under 500 nM. Regarding `CCNC(=O)N(CC1(N2CCN(Cc3ccccc3)CC2)CCOCC1)c1ccccn1` [Example 49, 1-((4-(4-benzylpiperazin-1-yl)tetrahydro-2H-pyran-4-yl)methyl)-3-ethyl-1-(pyridin-2-yl)urea], the “μ and σ1 dual” value is reported as “++”. In the case of `CCC(=O)N(CC1(N2CCN(Cc3ccc(C(F)(F)F)nc3)CC2)CC1)c1ccccc1` [Example 113, N-phenyl-N-((1-(4-((6-(trifluoromethyl)pyridin-3-yl)methyl)piperazin-1-yl)cyclopropyl)methyl)propionamide], the “μ and σ1 dual” value is reported as “++”. In turn, `CCC(=O)N(CC1(N2CCN(CCOC(C)C)CC2)CCOCC1)c1ncccc1F` [Example 157, N-(3-fluoropyridin-2-yl)-N-((4-(4-(2-isopropoxyethyl)piperazin-1-yl)tetrahydro-2H-pyran-4-yl)methyl)propionamide] gave an inhibitory constant (Ki) of under 500 nM. On the same count and under the same terms, with `CCC(=O)N(CC1(N2CCN(CC(C)C)CC2)CCOC2(CCCC2)C1)c1cccc(C(F)(F)F)n1` (stereo not drawn) [Example 175, N-((9-(4-isobutylpiperazin-1-yl)-6-oxaspiro[4.5]decan-9-yl)methyl)-N-(6-(trifluoromethyl)pyridin-2-yl)propionamide] the figure was under 500 nM; with `CCC(=O)N(CC1(N2CCN(Cc3ccccc3)CC2)CCOCC1)c1ccc(F)c(C#N)n1` [Example 61, N-((4-(4-benzylpiperazin-1-yl)tetrahydro-2H-pyran-4-yl)methyl)-N-(6-cyano-5-fluoropyridin-2-yl)propionamide], under 500 nM.

As to `CCC(=O)N(CC1(N2CCN(Cc3ccc(C(=O)NC)cc3)CC2)CC1)c1ccccc1` [Example 131, N-methyl-4-((4-(1-((N-phenylpropionamido)methyl)cyclopropyl)piperazin-1-yl)methyl)benzamide], the “μ and σ1 dual” value was “++”. In the case of `CCOc1ccc(N(CC2(N3CCN(Cc4ccccc4)CC3)CCN(C)CC2)C(=O)CC)cc1` [Example 24, N-((4-(4-benzylpiperazin-1-yl)-1-methylpiperidin-4-yl)methyl)-N-(4-ethoxyphenyl)propionamide], the Ki (combined class for both Ki-σ1 (assay A1) and Ki-μ (assay A2), human receptors, radioligand binding, read-out: μ and σ1 dual (binding to the σ1 receptor and the μ-opioid receptor expressed as Ki)) is over 500 nM. `CCC(=O)N(CC1(N2CCN(Cc3ccccc3)CC2)CC1)c1cccnc1C(F)(F)F` [Example 76, N-((1-(4-benzylpiperazin-1-yl)cyclopropyl)methyl)-N-(2-(trifluoromethyl)pyridin-3-yl)propionamide] gave an inhibition constant (Ki) of under 500 nM. On to `CCC(=O)N(CC1(N2CCN(Cc3ccccc3)CC2)CCOCC1)c1ccccc1OC` [Example 3, N-((4-(4-benzylpiperazin-1-yl)tetrahydro-2H-pyran-4-yl)methyl)-N-(2-methoxyphenyl)propionamide], for which the inhibition constant Ki is under 100 nM. As for `CCC(=O)N(CC1(N2CCN(Cc3ccccc3)CC2)CC1)c1nccs1` [Example 92, N-((1-(4-benzylpiperazin-1-yl)cyclopropyl)methyl)-N-(thiazol-2-yl)propionamide], the Ki was under 500 nM. With `CCC(=O)N(CC1(N2CCN(CCOCC(C)(C)O)CC2)CCOCC1)c1cccc(C(F)(F)F)n1` [Example 186, N-((4-(4-(2-(2-hydroxy-2-methylpropoxy)ethyl)piperazin-1-yl)tetrahydro-2H-pyran-4-yl)methyl)-N-(6-(trifluoromethyl)pyridin-2-yl)propionamide], the “μ and σ1 dual” value is listed as “++”.

Compound `CCC(=O)N(CC1(N2CCN(CC(C)C)CC2)CCOCC1)c1ccccc1` [Example 135, N-((4-(4-isobutylpiperazin-1-yl)tetrahydro-2H-pyran-4-yl)methyl)-N-phenylpropionamide] returned an inhibitory constant (Ki) of under 500 nM. For the compound `CCC(=O)N(CC1(N2CCN(CC(C)C)CC2)CCOC(C)(C)C1)c1ncccc1F` (stereo not drawn) [Example 170, N-(3-fluoropyridin-2-yl)-N-((4-(4-isobutylpiperazin-1-yl)-2,2-dimethyltetrahydro-2H-pyran-4-yl)methyl)propionamide], the “μ and σ1 dual” value was “++”. Turning to `CCC(=O)N(CC1(N2CCN(CCC(C)C)CC2)CC1)c1cccc(C(F)(F)F)n1` [Example 124, N-((1-(4-isopentylpiperazin-1-yl)cyclopropyl)methyl)-N-(6-(trifluoromethyl)pyridin-2-yl)propionamide], the inhibition constant Ki is under 100 nM.

(Values after US10428051B2 (priority 2015, dated 2019).)
